Earlier results on one substance are cited in patent publication US12091391B2, “Reagents and methods for bioorthogonal labeling of biomolecules in living cells” (Oregon State University, priority 2015, dated 2024).

As for “cyclopropane-fused trans cyclooctene [sTCO]”, the half-life in vivo is 16.1 h.
